Test results from the supplement of paper PMC10307832.

Experiments:
Assay in all cases: relative viability (nuclei count vs DMSO), 5 days (fraction); higher = more cells survive
CAL-12T = test system: CAL-12T
How it was run: (§1)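 Lung cancer cell lines in 1536-well plates got either a single drug or a fixed anchor-drug dose together with five library-drug doses (not always all listed) in √10 steps, by pin tool, on the day after seeding. Nuclei were counted after 5 days, and relative viability is the treated-to-vehicle ratio of nuclei counts. Values are medians of duplicate plates.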

COR-L 105 = test system: COR-L 105
How it was run: as §1

COR-L23 = test system: COR-L23
How it was run: as §1

HARA = test system: HARA
How it was run: as §1

HCC-15 = test system: HCC-15
How it was run: as §1

HCC-366 = test system: HCC-366
How it was run: as §1

HCC-44 = test system: HCC-44
How it was run: as §1

HCC-827 = test system: HCC-827
How it was run: as §1

HOP-62 = test system: HOP-62
How it was run: as §1

LC-2-ad = test system: LC-2-ad
How it was run: as §1

LK-2 = test system: LK-2
How it was run: as §1

LU99A = test system: LU99A
How it was run: as §1

LXF-289 = test system: LXF-289
How it was run: as §1

NCI-H1944 = test system: NCI-H1944
How it was run: as §1

NCI-H1975 = test system: NCI-H1975
How it was run: as §1

NCI-H2023 = test system: NCI-H2023
How it was run: as §1

NCI-H2085 = test system: NCI-H2085
How it was run: as §1

NCI-H647 = test system: NCI-H647
How it was run: as §1

NCI-H838 = test system: NCI-H838
How it was run: as §1

PC-14 = test system: PC-14
How it was run: as §1

NCI-H2342 = test system: NCI-H2342
How it was run: as §1

NCI-H522 = test system: NCI-H522
How it was run: as §1

SW 900 = test system: SW 900
How it was run: as §1

Oc1nc(-c2ccc(C(F)(F)F)cc2)nc2c1CSCC2 [XAV939] + CC1(C)CCC(c2ccc(Cl)cc2)=C(CN2CCN(c3ccc(C(=O)NS(=O)(=O)c4ccc(N[C@H](CCN5CCOCC5)CSc5ccccc5)c(S(=O)(=O)C(F)(F)F)c4)cc3)CC2)C1 [Navitoclax] (partner 0.5 µM)
relative viability (CAL-12T; first compound 0.08 µM): 1.39
relative viability (CAL-12T; first compound 0.253 µM): 1.07
relative viability (CAL-12T; first compound 0.8 µM): 1.28
relative viability (CAL-12T; first compound 2.53 µM): 1.03
relative viability (COR-L 105; first compound 0.08 µM): 0.754
relative viability (COR-L 105; first compound 0.253 µM): 0.62
relative viability (COR-L 105; first compound 0.8 µM): 0.637
relative viability (COR-L 105; first compound 2.53 µM): 0.458
relative viability (COR-L23; first compound 0.08 µM): 1
relative viability (COR-L23; first compound 0.253 µM): 0.855
relative viability (COR-L23; first compound 0.8 µM): 0.948
relative viability (COR-L23; first compound 2.53 µM): 0.892
relative viability (HARA; first compound 0.08 µM): 1.15
relative viability (HARA; first compound 0.253 µM): 0.609
relative viability (HARA; first compound 0.8 µM): 1.17
relative viability (HARA; first compound 2.53 µM): 1.17
relative viability (HCC-15; first compound 0.08 µM): 0.719
relative viability (HCC-15; first compound 0.253 µM): 0.612
relative viability (HCC-15; first compound 0.8 µM): 0.678
relative viability (HCC-15; first compound 2.53 µM): 0.684
relative viability (HCC-366; first compound 0.08 µM): 1.12
relative viability (HCC-366; first compound 0.253 µM): 1.09
relative viability (HCC-366; first compound 0.8 µM): 1.05
relative viability (HCC-366; first compound 2.53 µM): 0.942
relative viability (HCC-44; first compound 0.08 µM): 1.01
relative viability (HCC-44; first compound 0.253 µM): 0.945
relative viability (HCC-44; first compound 0.8 µM): 0.948
relative viability (HCC-44; first compound 2.53 µM): 0.899
relative viability (HCC-827; first compound 0.08 µM): 1.02
relative viability (HCC-827; first compound 0.253 µM): 1.02
relative viability (HCC-827; first compound 0.8 µM): 0.975
relative viability (HCC-827; first compound 2.53 µM): 1.04
relative viability (HOP-62; first compound 0.08 µM): 1.08
relative viability (HOP-62; first compound 0.253 µM): 1.02
relative viability (HOP-62; first compound 0.8 µM): 0.995
relative viability (HOP-62; first compound 2.53 µM): 0.932
relative viability (LC-2-ad; first compound 0.08 µM): 0.389
relative viability (LC-2-ad; first compound 0.253 µM): 0.429
relative viability (LC-2-ad; first compound 0.8 µM): 0.6
relative viability (LC-2-ad; first compound 2.53 µM): 0.428
relative viability (LK-2; first compound 0.08 µM): 1.07
relative viability (LK-2; first compound 0.253 µM): 0.757
relative viability (LK-2; first compound 0.8 µM): 0.928
relative viability (LK-2; first compound 2.53 µM): 0.631
relative viability (LU99A; first compound 0.08 µM): 0.939
relative viability (LU99A; first compound 0.253 µM): 0.708
relative viability (LU99A; first compound 0.8 µM): 0.683
relative viability (LU99A; first compound 2.53 µM): 0.708
relative viability (LXF-289; first compound 0.08 µM): 0.92
relative viability (LXF-289; first compound 0.253 µM): 0.911
relative viability (LXF-289; first compound 0.8 µM): 0.949
relative viability (LXF-289; first compound 2.53 µM): 0.972
relative viability (NCI-H1944; first compound 0.08 µM): 1.07
relative viability (NCI-H1944; first compound 0.253 µM): 0.986
relative viability (NCI-H1944; first compound 0.8 µM): 1.01
relative viability (NCI-H1944; first compound 2.53 µM): 1.1
relative viability (NCI-H1975; first compound 0.08 µM): 1.08
relative viability (NCI-H1975; first compound 0.253 µM): 0.784
relative viability (NCI-H1975; first compound 0.8 µM): 1.06
relative viability (NCI-H1975; first compound 2.53 µM): 0.768
relative viability (NCI-H2023; first compound 0.08 µM): 0.968
relative viability (NCI-H2023; first compound 0.253 µM): 0.843
relative viability (NCI-H2023; first compound 0.8 µM): 0.862
relative viability (NCI-H2023; first compound 2.53 µM): 0.827
relative viability (NCI-H2085; first compound 0.08 µM): 1.1
relative viability (NCI-H2085; first compound 0.253 µM): 1.1
relative viability (NCI-H2085; first compound 0.8 µM): 1.13
relative viability (NCI-H2085; first compound 2.53 µM): 0.882
relative viability (NCI-H647; first compound 0.08 µM): 1.18
relative viability (NCI-H647; first compound 0.253 µM): 0.94
relative viability (NCI-H647; first compound 0.8 µM): 0.881
relative viability (NCI-H647; first compound 2.53 µM): 0.877
relative viability (NCI-H838; first compound 0.08 µM): 1.21
relative viability (NCI-H838; first compound 0.253 µM): 0.994
relative viability (NCI-H838; first compound 0.8 µM): 1.07
relative viability (NCI-H838; first compound 2.53 µM): 0.868
relative viability (PC-14; first compound 0.08 µM): 1.04
relative viability (PC-14; first compound 0.253 µM): 0.906
relative viability (PC-14; first compound 0.8 µM): 1.03
relative viability (PC-14; first compound 2.53 µM): 0.956

Oc1nc(-c2ccc(C(F)(F)F)cc2)nc2c1CSCC2 [XAV939] + Cc1nc(Nc2ncc(C(=O)Nc3c(C)cccc3Cl)s2)cc(N2CCN(CCO)CC2)n1 [Dasatinib] (partner 0.075 µM)
relative viability (CAL-12T; first compound 0.08 µM): 0.572
relative viability (CAL-12T; first compound 0.253 µM): 0.401
relative viability (CAL-12T; first compound 0.8 µM): 0.308
relative viability (CAL-12T; first compound 2.53 µM): 0.211
relative viability (COR-L 105; first compound 0.08 µM): 0.348
relative viability (COR-L 105; first compound 0.253 µM): 0.378
relative viability (COR-L 105; first compound 0.8 µM): 0.315
relative viability (COR-L 105; first compound 2.53 µM): 0.273
relative viability (COR-L23; first compound 0.08 µM): 0.461
relative viability (COR-L23; first compound 0.253 µM): 0.424
relative viability (COR-L23; first compound 0.8 µM): 0.505
relative viability (COR-L23; first compound 2.53 µM): 0.444
relative viability (HARA; first compound 0.08 µM): 0.229
relative viability (HARA; first compound 0.253 µM): 0.201
relative viability (HARA; first compound 0.8 µM): 0.275
relative viability (HARA; first compound 2.53 µM): 0.256
relative viability (HCC-15; first compound 0.08 µM): 0.633
relative viability (HCC-15; first compound 0.253 µM): 0.463
relative viability (HCC-15; first compound 0.8 µM): 0.601
relative viability (HCC-15; first compound 2.53 µM): 0.54
relative viability (HCC-366; first compound 0.08 µM): 0.598
relative viability (HCC-366; first compound 0.253 µM): 0.589
relative viability (HCC-366; first compound 0.8 µM): 0.824
relative viability (HCC-366; first compound 2.53 µM): 0.598
relative viability (HCC-827; first compound 0.08 µM): 0.349
relative viability (HCC-827; first compound 0.253 µM): 0.297
relative viability (HCC-827; first compound 0.8 µM): 0.393
relative viability (HCC-827; first compound 2.53 µM): 0.437
relative viability (HOP-62; first compound 0.08 µM): 0.738
relative viability (HOP-62; first compound 0.253 µM): 0.659
relative viability (HOP-62; first compound 0.8 µM): 0.621
relative viability (HOP-62; first compound 2.53 µM): 0.396
relative viability (LC-2-ad; first compound 0.08 µM): 0.729
relative viability (LC-2-ad; first compound 0.253 µM): 0.446
relative viability (LC-2-ad; first compound 0.8 µM): 0.553
relative viability (LC-2-ad; first compound 2.53 µM): 0.595
relative viability (LK-2; first compound 0.08 µM): 0.262
relative viability (LK-2; first compound 0.253 µM): 0.31
relative viability (LK-2; first compound 0.8 µM): 0.27
relative viability (LK-2; first compound 2.53 µM): 0.399
relative viability (LU99A; first compound 0.08 µM): 0.503
relative viability (LU99A; first compound 0.253 µM): 0.56
relative viability (LU99A; first compound 0.8 µM): 0.591
relative viability (LU99A; first compound 2.53 µM): 0.457
relative viability (LXF-289; first compound 0.08 µM): 0.179
relative viability (LXF-289; first compound 0.253 µM): 0.167
relative viability (LXF-289; first compound 0.8 µM): 0.178
relative viability (LXF-289; first compound 2.53 µM): 0.139
relative viability (NCI-H1944; first compound 0.08 µM): 0.239
relative viability (NCI-H1944; first compound 0.253 µM): 0.248
relative viability (NCI-H1944; first compound 0.8 µM): 0.226
relative viability (NCI-H1944; first compound 2.53 µM): 0.218
relative viability (NCI-H1975; first compound 0.08 µM): 0.305
relative viability (NCI-H1975; first compound 0.253 µM): 0.264
relative viability (NCI-H1975; first compound 0.8 µM): 0.286
relative viability (NCI-H1975; first compound 2.53 µM): 0.234
relative viability (NCI-H2023; first compound 0.08 µM): 0.512
relative viability (NCI-H2023; first compound 0.253 µM): 0.397
relative viability (NCI-H2023; first compound 0.8 µM): 0.334
relative viability (NCI-H2023; first compound 2.53 µM): 0.336
relative viability (NCI-H2085; first compound 0.08 µM): 0.288
relative viability (NCI-H2085; first compound 0.253 µM): 0.196
relative viability (NCI-H2085; first compound 0.8 µM): 0.285
relative viability (NCI-H2085; first compound 2.53 µM): 0.204
relative viability (NCI-H2342; first compound 0.08 µM): 0.309
relative viability (NCI-H2342; first compound 0.253 µM): 0.285
relative viability (NCI-H2342; first compound 0.8 µM): 0.326
relative viability (NCI-H2342; first compound 2.53 µM): 0.254
relative viability (NCI-H522; first compound 0.08 µM): 0.982
relative viability (NCI-H522; first compound 0.253 µM): 0.812
relative viability (NCI-H522; first compound 0.8 µM): 0.465
relative viability (NCI-H522; first compound 2.53 µM): 0.779
relative viability (NCI-H647; first compound 0.08 µM): 0.164
relative viability (NCI-H647; first compound 0.253 µM): 0.207
relative viability (NCI-H647; first compound 0.8 µM): 0.201
relative viability (NCI-H647; first compound 2.53 µM): 0.147
relative viability (NCI-H838; first compound 0.08 µM): 0.217
relative viability (NCI-H838; first compound 0.253 µM): 0.256
relative viability (NCI-H838; first compound 0.8 µM): 0.284
relative viability (NCI-H838; first compound 2.53 µM): 0.212
relative viability (PC-14; first compound 0.08 µM): 0.288
relative viability (PC-14; first compound 0.253 µM): 0.252
relative viability (PC-14; first compound 0.8 µM): 0.204
relative viability (PC-14; first compound 2.53 µM): 0.148
relative viability (SW 900; first compound 0.08 µM): 0.545
relative viability (SW 900; first compound 0.253 µM): 0.463
relative viability (SW 900; first compound 0.8 µM): 0.51
relative viability (SW 900; first compound 2.53 µM): 0.435
